Data reported in article PMC10569036.

Experiments:
[1] = shake flask on a mixture of 185; loss from the water phase only; LC-Orbitrap peak areas; details: room
[2] = shake flask on a mixture of 185; loss from the water phase only; LC-QTOF peak areas; details: room

Row | SMILES | log partition 1-octanol / HPLC water, unbuffered, traces of methanol / DMSO [1] | log partition butyl acetate / HPLC water, unbuffered, traces of methanol / DMSO [1] | log partition chloroform / HPLC water, unbuffered, traces of methanol / DMSO [1] | log partition cyclohexane / HPLC water, unbuffered, traces of methanol / DMSO [1] | log partition dichloromethane / HPLC water, unbuffered, traces of methanol / DMSO [1] | log partition n-hexane / HPLC water, unbuffered, traces of methanol / DMSO [1] | log partition n-octane / HPLC water, unbuffered, traces of methanol / DMSO [1] | log partition n-undecane / HPLC water, unbuffered, traces of methanol / DMSO [1] | log partition oleylalcohol / HPLC water, unbuffered, traces of methanol / DMSO [1] | log partition toluene / HPLC water, unbuffered, traces of methanol / DMSO [1] | log partition 1-octanol / HPLC water, unbuffered, traces of methanol / DMSO [2] | log partition butyl acetate / HPLC water, unbuffered, traces of methanol / DMSO [2] | log partition chloroform / HPLC water, unbuffered, traces of methanol / DMSO [2] | log partition cyclohexane / HPLC water, unbuffered, traces of methanol / DMSO [2] | log partition dichloromethane / HPLC water, unbuffered, traces of methanol / DMSO [2] | log partition n-hexane / HPLC water, unbuffered, traces of methanol / DMSO [2] | log partition n-octane / HPLC water, unbuffered, traces of methanol / DMSO [2] | log partition n-undecane / HPLC water, unbuffered, traces of methanol / DMSO [2] | log partition oleylalcohol / HPLC water, unbuffered, traces of methanol / DMSO [2] | log partition toluene / HPLC water, unbuffered, traces of methanol / DMSO [2]
1 | Cc1cc(C)nc(NS(=O)(=O)c2ccc(N)cc2)n1 | -0.03015 log10 | -0.1328 log10 | 0.1061 log10 | -0.9043 log10 | -0.3816 log10 | -0.631 log10 | -0.6854 log10 | -0.8904 log10 | -0.3433 log10 | -1.077 log10 | -0.08641 log10 | -0.1162 log10 | -0.2658 log10 | -0.9757 log10 | -0.5411 log10 | -1.336 log10 | -1.319 log10 | -1.455 log10 | -0.5276 log10 | -1.085 log10
2 | COC(=O)C(C)N(C(=O)c1ccco1)c1c(C)cccc1C (centres unmarked) | 1.653 log10 | 2.039 log10 | 1.758 log10 |  | 1.796 log10 |  |  |  | 1.315 log10 | 1.918 log10 | 2.113 log10 | 2.322 log10 | 2.434 log10 |  | 2.829 log10 |  |  |  | 2.215 log10 | 2.516 log10
3 | CN/C(=N/[N+](=O)[O-])NCC1CCOC1 (centres unmarked) | 0.006708 log10 | 0.08365 log10 | 0.01252 log10 | -0.8947 log10 | 0.2723 log10 | -0.6643 log10 | -1.349 log10 | -1.639 log10 | -0.3931 log10 | -0.3042 log10 | -0.7277 log10 | -1.391 log10 | -0.45 log10 | -1.158 log10 | -0.07832 log10 | -1.181 log10 | -1.698 log10 | -1.902 log10 | -1.007 log10 | -1.236 log10
4 | c1coc(-c2nc3ccccc3[nH]2)c1 | 1.137 log10 | 1.189 log10 | 0.9478 log10 | -0.1735 log10 | 1.025 log10 | -0.2475 log10 | -0.314 log10 | -0.8377 log10 | 1.389 log10 | 0.5283 log10 | 1.514 log10 | 1.818 log10 | 1.228 log10 | -0.8199 log10 | 1.187 log10 | -1.048 log10 | -0.9024 log10 | -1.111 log10 | 1.545 log10 | 0.6693 log10
5 | c1ccc2[nH]c(-c3cscn3)nc2c1 | 1.814 log10 | 2.093 log10 | 1.499 log10 | 0.0278 log10 | 1.694 log10 | -0.1668 log10 | -0.1168 log10 | -1.167 log10 | 1.762 log10 | 0.9569 log10 | 0.8781 log10 | 0.7498 log10 | 0.5738 log10 | -1.051 log10 | 0.733 log10 | -0.9485 log10 | -1.018 log10 | -1.324 log10 | 0.7334 log10 | 0.2898 log10
